Laboratory results from publication PMC4535769, “The Carboxy Terminus of the Ligand Peptide Determines the Stability of the MHC Class I Molecule H-2K^b: A Combined Molecular Dynamics and Experimental Study” (PLoS ONE, 2015).
Read-outs that look alike come from different tables or passages of the source. Ends that are not written are not given here.

Assays:
K^b/β2m [1] = target: T1, K^b/β2m (Mus musculus, UniProt P01901); test: Thermal denaturation by tryptophan fluorescence (TDTF) of K^b/β2m/peptide complexes; assay type: binding, murine; details: for ∆GTDTF: derived from TDTF measurements by the two-state, single-transition model
T1 construct: The TDTF analysis was performed on the luminal domain of K^b, which was produced in E.coli; made in house
Procedure: TDTF measurements and Tm determination were performed exactly as described previously [36].
To test our ranking by experiment, we next used the TDTF (thermal denaturation measured by tryptophan fluorescence) assay to determine the Tm of the K^b/peptide complexes. In this assay, thermal unfolding of the class I molecule is measured by the decrease in fluorescence intensity that occurs when the tryptophan indoles are exposed to the aqueous environment [49, 50]. The TDTF analysis was performed on the luminal domain of K^b, which was produced in E.coli and folded from inclusion bodies as a complex with human β2m and with or without peptide [36]. […] From the Tm values, we derived the ΔΔGTDTF values using the two-state model of denaturation [50, 51].
The folded heavy chain/β2m/peptide complex was prepared by diluting 200 ‏‏µg of the K^b heavy chain, 200 ‏‏µg of human β2m (both produced in E. coli), and none or 10 µM of peptide into 2 ml of the refolding buffer (100 mM Tris-Cl pH 8, 0.5 M arginine, 2 mM EDTA, 0.5 mM oxidized glutathione, 5 mM reduced glutathione), and the reaction was incubated at 4 °C for 48 hours, then ultracentrifuged at 10^5 ×g for 20 min to sediment aggregates. Concentration of soluble protein was then determined using the Bradford assay.
The folded complex was measured in PBS (150 mM NaCl, 10 mM phosphate pH 7.4) in a 1 cm × 1 cm cuvette in a Cary Eclipse fluorimeter (Agilent, Waldbronn, Germany) equipped with a Peltier heater and an in-cuvette thermocouple. The sample was heated at 0.30 K/min, and fluorescence values (λex= 290 nm, λem= 345 nm) were recorded every 0.1 K.
The differentials (F(T+∆T) – F(T))/∆T (with F = fluorescence intensity and ∆T = the temperature interval of recording) were smoothed over 40 points. The minimum of the resulting curve allows a simple optical assessment of the Tm. For display, LOWESS fits [17] to the differentials were performed with GraphPad Prism (GraphPad, La Jolla, CA, USA).
The binding free energy components were derived from the TDTF measurements according to the two-state, single-transition model [18,19]. […]

K^b/β2m [2] = target: T1, K^b/β2m; test: Competitive binding against SIINFEKTAMRAL measured by fluorescence anisotropy (IC50); parameters: species or system murine
Procedure: Steady state measurements were performed with peptide-free folding reactions of K^b/β2m.
K^b was folded empty and then incubated with different concentrations of each peptide variant for five minutes. Then, the index peptide SIINFEKTAMRAL (fluorescently labeled on the lysine side chain) was added as a competitor, and the endpoint of its binding was measured by fluorescence anisotropy. From theory curves fitted to the data, we calculated the half-maximal concentration of inhibition of SIINFEKTAMRAL binding (IC50) for each modified peptide (Fig 6, S1F Fig).
Fig 6 Half-maximal concentration of peptide (IC50) required to inhibit the binding of the high affinity peptide SIINFEKTAMRAL. K^b/β2m complexes derived from the […] (B) structures were folded empty and then incubated for 5 minutes with different concentrations of full-length, truncated, or modified peptides. […] Binding curves (left) are of one representative experiment, and the IC50 values (right) are the average of three experiments.

[3] = target: T2, cell surface K^b, RMA-S cells (Mus musculus, UniProt P01901); test: Brefeldin A (BFA) decay assay, cell surface K^b on RMA-S cells; assay type: cell-based, murine; details: 10 μM peptide, 10 μg/ml BFA, 37°C, after four hours, MAb Y3, flow cytometry, n = 3
T2 construct: endogenous in cells; host or cells: RMA-S cells (TAP-deficient)
T2 sequence (P01901 22-369): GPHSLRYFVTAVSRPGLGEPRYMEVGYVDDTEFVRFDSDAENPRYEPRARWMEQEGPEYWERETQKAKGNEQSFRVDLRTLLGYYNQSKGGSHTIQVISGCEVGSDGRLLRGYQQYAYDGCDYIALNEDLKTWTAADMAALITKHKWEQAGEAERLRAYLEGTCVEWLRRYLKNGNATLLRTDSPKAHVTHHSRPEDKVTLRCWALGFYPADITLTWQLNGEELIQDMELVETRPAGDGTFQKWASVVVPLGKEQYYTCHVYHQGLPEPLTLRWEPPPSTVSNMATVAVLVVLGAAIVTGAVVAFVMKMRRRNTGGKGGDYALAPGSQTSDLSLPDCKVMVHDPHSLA
T2 sequence (P01887 21-119 partner): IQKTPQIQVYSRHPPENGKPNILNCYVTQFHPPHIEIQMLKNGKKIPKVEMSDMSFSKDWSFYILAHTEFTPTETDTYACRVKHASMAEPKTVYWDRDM
Procedure: RMA-S cells were kept overnight at 25°C and at t = 0 treated with 10 μg/ml BFA (Applichem or Alfa Aesar) and with 10 μM peptide and transferred to 37°C for a maximum of 4 hours. At different time points, cells were washed twice with 1x PBS/0.01% NaN3, and cell surface K^b was measured with the MAb Y3 by flow cytometry.
We then incubated these cells with each peptide and measured the surface residence time of the K^b/peptide complexes by withdrawing aliquots of cells at different times, fixing, and staining with the antibody Y3 followed by flow cytometry (Fig 7, S1I Fig).
RMA-S cells were incubated overnight at 25°C, then 10 μM peptide (as indicated) was added to the medium, and cells were transferred to 37°C. H-2K^b surface levels were determined at each time point with MAb Y3 and flow cytometry. Averages ± SEM (n = 3) are normalized to initial mean fluorescence intensity (MFI).

[4] = K^b/β2m folded empty, incubated 5 min with peptide, then 100 nM SIINFEKTAMRAL, fluorescence anisotropy endpoint, average of three experiments, read-out: IC50, inhibition of SIINFEKTAMRAL binding

T1 sequence (P61769 21-119 partner, one chain of several): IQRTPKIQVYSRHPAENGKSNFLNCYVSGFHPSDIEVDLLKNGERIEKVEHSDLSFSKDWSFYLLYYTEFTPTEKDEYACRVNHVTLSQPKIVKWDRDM

Compound: SIINFEKL-Cdel
- ∆GTDTF (K^b/β2m [1]): -83.8 ± 8.3 kcal/mol
- ∆∆GTDTF (K^b/β2m [1]; derived from Tm by the two-state model, relative to the full-length peptide): 20.7 kcal/mol

Compound: APGNYPAL [APGNYPAL]
- IC50 (K^b/β2m [2]): 150 nM

Compound: SIINFEKG
- ∆GTDTF (K^b/β2m [1]): -92.6 ± 9.2 kcal/mol

Compound: CC(C)C[C@H](NC(=O)[C@H](C)NC(=O)[C@@H]1CCCN1C(=O)[C@H](Cc1ccc(O)cc1)NC(=O)[C@H](CC(N)=O)NC(=O)CNC(=O)[C@@H]1CCCN1C(=O)[C@H](C)NC(=O)[C@@H](N)Cc1ccccc1)C(=O)O [FAPGNYPAL]
- K^b/peptide complexes remaining on the cell surface [3]: more than 80%

Compound: FAPGNYPA
- IC50 (K^b/β2m [2]): 18000 nM

Compound: CC[C@H](C)[C@H](NC(=O)[C@@H](NC(=O)[C@@H](N)CO)[C@@H](C)CC)C(=O)N[C@@H](CC(N)=O)C(=O)N[C@@H](Cc1ccccc1)C(=O)N[C@@H](CCC(=O)O)C(=O)N[C@@H](CCCCN)C(=O)N[C@@H](CC(C)C)C(=O)O [reference compound]
- IC50 (K^b/β2m [2]; [4]): 190 nM
- K^b/peptide complexes remaining on the cell surface [3]: more than 80%

Compound: SIINFEKA
- IC50 (K^b/β2m [2]; [4]): 120 nM
